Patent US20250145606A1 (Arcus Biosciences, Inc., priority 2023, published 2025)
Like-named read-outs stand apart in the source and are kept apart here.

Legend:
CSF1R = CSF1R (Homo sapiens (Human), UniProt P07333); test: Inhibition of CSF1R kinase activity (HTRF KinEASE-TK); details: biochemical
How it was run: (§1)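 Recombinant kinases (2 nM CSF1R and c-Kit, 10 nM PDGFRα/β, 2× working) preincubated 1 h with compound in 50 mM HEPES pH 7.4, 5 mM MgCl2 (c-Kit) or 10 mM (others), 2 mM MnCl2; 2× ATP: c-Kit 16 μM, PDGFRα 1 μM, PDGFRβ 40 μM, CSF1R 20 μM. 120 min reaction at rt; TR-FRET 665/620 nm; IC50 by 4-parameter fit.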

c-Kit = c-Kit (Homo sapiens (Human), UniProt P10721); test: Inhibition of c-Kit kinase activity (HTRF KinEASE-TK); assay type: biochemical; details: biochemical
Chain of c-Kit (P10721 26-976): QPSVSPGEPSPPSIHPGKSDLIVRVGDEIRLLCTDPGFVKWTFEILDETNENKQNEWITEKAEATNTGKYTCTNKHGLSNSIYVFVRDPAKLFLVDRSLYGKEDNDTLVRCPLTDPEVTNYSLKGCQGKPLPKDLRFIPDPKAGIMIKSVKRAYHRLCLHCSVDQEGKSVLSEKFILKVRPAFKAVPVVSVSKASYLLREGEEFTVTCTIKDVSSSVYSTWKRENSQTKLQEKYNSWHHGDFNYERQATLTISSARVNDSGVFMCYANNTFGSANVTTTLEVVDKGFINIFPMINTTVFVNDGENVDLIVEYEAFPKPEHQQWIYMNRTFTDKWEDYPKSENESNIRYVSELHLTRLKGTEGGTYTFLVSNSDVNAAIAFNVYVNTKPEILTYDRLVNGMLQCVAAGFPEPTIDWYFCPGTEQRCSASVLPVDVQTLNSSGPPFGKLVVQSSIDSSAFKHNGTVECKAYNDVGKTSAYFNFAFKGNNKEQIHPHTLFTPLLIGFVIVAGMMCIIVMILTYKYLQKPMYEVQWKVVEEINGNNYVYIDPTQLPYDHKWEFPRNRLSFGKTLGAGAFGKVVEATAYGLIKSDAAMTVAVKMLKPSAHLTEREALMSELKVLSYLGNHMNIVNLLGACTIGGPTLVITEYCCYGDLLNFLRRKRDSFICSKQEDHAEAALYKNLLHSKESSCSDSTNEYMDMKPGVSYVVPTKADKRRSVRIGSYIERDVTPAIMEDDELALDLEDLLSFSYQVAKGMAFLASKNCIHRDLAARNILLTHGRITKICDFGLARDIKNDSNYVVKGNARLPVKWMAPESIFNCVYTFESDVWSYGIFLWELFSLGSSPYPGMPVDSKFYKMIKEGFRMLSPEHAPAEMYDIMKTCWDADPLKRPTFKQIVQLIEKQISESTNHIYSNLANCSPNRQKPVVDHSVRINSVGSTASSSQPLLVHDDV
How it was run: as §1

PDGFRβ = PDGFRβ (Homo sapiens (Human), UniProt P09619); test: Inhibition of PDGFRβ kinase activity (HTRF KinEASE-TK); details: biochemical
Chain of PDGFRβ (P09619 33-1106): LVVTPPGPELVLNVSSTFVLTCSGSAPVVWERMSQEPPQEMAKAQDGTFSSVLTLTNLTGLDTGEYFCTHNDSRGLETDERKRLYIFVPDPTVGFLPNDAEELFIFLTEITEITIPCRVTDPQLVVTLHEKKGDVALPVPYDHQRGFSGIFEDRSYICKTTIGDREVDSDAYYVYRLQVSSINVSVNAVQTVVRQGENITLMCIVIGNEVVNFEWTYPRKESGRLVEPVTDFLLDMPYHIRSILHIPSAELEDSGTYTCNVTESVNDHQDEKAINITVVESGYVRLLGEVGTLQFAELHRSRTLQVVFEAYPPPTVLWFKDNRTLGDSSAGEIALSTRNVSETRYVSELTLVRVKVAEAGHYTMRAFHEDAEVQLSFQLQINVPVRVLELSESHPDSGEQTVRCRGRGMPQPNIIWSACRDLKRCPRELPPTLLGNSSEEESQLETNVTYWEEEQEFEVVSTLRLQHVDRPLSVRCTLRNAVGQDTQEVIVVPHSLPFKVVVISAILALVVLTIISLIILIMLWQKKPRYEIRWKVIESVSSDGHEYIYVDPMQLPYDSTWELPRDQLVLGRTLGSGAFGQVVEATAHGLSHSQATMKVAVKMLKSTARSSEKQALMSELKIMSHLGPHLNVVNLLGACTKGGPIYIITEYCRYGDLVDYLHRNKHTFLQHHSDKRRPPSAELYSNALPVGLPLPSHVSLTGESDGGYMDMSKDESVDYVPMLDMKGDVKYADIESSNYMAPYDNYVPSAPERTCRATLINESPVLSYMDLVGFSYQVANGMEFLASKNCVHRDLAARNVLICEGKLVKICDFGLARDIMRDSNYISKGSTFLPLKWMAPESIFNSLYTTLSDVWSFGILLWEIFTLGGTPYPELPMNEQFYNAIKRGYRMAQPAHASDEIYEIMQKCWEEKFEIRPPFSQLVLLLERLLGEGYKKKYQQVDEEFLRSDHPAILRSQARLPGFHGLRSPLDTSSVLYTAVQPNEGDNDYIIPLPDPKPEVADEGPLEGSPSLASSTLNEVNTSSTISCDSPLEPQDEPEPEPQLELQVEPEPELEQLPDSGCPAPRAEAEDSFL
How it was run: as §1

FLT3 = FLT3 (Homo sapiens (Human), UniProt P36888); test: Inhibition of FLT3 kinase activity (HTRF KinEASE-TK); assay type: biochemical; details: biochemical
Chain of FLT3 (P36888 27-993): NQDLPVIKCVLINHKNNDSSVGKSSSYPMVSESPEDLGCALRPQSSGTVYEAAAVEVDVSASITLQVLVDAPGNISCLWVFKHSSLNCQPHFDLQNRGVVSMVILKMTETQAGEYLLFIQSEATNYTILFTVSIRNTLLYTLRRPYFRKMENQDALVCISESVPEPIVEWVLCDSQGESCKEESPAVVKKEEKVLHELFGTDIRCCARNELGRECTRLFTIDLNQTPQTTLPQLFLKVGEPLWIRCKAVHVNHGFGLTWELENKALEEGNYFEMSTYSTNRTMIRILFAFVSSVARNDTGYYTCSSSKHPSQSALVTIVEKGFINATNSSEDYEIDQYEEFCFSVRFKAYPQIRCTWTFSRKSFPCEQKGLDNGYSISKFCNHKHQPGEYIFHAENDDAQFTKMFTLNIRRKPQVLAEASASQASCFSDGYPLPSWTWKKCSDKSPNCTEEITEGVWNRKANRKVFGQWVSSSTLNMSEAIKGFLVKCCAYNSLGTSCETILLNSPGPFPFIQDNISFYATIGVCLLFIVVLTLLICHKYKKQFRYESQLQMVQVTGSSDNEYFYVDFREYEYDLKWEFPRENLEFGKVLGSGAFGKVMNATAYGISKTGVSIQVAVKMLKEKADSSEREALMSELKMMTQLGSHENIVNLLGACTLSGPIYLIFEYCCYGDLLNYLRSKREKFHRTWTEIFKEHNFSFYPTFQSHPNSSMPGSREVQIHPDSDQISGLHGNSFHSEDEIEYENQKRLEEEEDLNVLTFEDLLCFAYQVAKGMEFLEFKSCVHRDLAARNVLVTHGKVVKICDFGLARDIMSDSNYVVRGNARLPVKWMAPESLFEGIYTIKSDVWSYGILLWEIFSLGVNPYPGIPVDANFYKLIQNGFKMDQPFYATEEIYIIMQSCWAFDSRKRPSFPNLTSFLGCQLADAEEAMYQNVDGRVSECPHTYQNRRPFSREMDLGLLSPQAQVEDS
How it was run: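 FLT3 tyrosine kinase activity was measured with the HTRF KinEASE-TK kit by following phosphorylation of a biotinylated TK peptide. After the 45 min reaction, 10 μL of detection mix was added: 0.2 μM (2×) Streptavidin-XL665 and 2 μM (2×) TK-Antibody-Cryptate in detection buffer. After 60 min, TR-FRET was read on an Envision as the 665 nm/620 nm emission ratio with 320 nm excitation.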

PDGFRα = PDGFRα (Homo sapiens (Human), UniProt P16234); test: Inhibition of PDGFRα kinase activity (HTRF KinEASE-TK); details: biochemical
Chain of PDGFRα (P16234 24-1089): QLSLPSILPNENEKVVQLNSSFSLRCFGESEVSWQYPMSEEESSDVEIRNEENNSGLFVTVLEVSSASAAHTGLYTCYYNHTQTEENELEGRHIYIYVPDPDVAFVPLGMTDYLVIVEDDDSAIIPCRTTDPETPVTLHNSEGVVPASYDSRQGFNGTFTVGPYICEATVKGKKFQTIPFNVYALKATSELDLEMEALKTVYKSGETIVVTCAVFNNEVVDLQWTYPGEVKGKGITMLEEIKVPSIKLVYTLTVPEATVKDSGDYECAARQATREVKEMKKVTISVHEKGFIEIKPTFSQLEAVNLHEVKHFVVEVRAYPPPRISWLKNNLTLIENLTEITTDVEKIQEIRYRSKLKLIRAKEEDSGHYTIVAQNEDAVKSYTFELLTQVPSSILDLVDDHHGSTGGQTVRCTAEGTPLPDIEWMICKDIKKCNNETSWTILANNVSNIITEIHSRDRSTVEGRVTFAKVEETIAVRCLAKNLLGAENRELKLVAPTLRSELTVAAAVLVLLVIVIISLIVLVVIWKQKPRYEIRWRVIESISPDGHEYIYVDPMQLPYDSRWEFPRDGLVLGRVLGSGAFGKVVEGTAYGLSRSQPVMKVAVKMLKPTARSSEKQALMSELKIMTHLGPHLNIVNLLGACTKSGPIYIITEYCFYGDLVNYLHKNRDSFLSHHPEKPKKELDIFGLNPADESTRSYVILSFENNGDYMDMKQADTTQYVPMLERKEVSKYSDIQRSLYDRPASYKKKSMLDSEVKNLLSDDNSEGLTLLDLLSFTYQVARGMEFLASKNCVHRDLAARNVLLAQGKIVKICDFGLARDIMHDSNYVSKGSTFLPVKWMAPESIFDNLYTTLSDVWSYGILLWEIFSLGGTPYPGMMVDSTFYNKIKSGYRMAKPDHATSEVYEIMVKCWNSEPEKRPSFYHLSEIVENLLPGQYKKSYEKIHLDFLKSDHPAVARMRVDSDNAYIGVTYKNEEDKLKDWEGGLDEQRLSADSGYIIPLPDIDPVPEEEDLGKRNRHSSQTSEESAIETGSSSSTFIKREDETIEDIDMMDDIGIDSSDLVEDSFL
How it was run: as §1

[1] = system: Phospho-KIT (Y703) in M07e cells; test: Phospho-KIT (Y703) cellular assay in M07e cells; assay type: cell-based; details: M-07e, read-out: M07e Cell IC50
How it was run: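 Serum-starved M07e cells preincubated 50 min at 37° C with 11-point half-log compound titration, then stimulated 10 min with SCF at 90.9 ng/mL final. Fixed, permeabilized cells stained for phospho-KIT Y703 and read by flow cytometry (live-gated geometric mean); IC50 by 4-parameter fit normalized to DMSO and positive control.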

Chain of CSF1R (P07333 20-972): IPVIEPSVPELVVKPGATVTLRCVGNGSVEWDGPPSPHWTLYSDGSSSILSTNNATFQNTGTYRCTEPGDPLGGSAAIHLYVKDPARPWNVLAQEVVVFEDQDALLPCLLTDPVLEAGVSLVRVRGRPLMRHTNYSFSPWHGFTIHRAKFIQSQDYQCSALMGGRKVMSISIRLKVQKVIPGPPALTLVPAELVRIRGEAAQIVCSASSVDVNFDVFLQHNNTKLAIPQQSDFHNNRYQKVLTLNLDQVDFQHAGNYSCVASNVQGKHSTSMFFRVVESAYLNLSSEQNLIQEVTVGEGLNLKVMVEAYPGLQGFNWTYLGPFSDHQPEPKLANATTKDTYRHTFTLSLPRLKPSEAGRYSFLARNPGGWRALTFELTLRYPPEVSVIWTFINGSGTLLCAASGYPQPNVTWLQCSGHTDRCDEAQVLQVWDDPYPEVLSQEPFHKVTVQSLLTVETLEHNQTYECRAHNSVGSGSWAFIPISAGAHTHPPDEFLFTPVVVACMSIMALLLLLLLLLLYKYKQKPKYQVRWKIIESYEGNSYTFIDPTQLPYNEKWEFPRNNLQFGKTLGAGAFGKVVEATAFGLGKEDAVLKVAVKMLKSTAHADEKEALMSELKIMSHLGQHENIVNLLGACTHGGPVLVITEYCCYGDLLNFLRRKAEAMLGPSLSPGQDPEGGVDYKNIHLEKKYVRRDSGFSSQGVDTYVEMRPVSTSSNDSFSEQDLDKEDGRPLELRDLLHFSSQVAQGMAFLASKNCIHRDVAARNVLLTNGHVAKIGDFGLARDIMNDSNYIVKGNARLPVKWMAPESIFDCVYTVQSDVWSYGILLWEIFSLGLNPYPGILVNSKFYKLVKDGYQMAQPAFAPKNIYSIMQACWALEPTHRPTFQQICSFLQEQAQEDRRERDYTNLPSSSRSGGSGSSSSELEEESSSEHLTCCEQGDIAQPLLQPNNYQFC

SMILES	IC50 (CSF1R) [nM]	IC50 (c-Kit) [nM]	IC50 (PDGFRβ) [nM]	IC50 (FLT3) [nM]	IC50 (PDGFRα) [nM]	IC50 ([1]; phospho-KIT (Y703), SCF-stimulated M07e cells) [nM]	IC50 (CSF1R; HTRF KinEASE-TK) [nM]	IC50 (c-Kit; HTRF KinEASE-TK) [nM]	IC50 (PDGFRβ; HTRF KinEASE-TK) [nM]	IC50 (FLT3; HTRF KinEASE-TK) [nM]	IC50 (PDGFRα; HTRF KinEASE-TK) [nM]	IC50 ([1]; Phospho-KIT (Y703), M07e cells) [nM]
Cc1cc(F)c(C(=O)Nc2ccc(OC(F)(F)F)cn2)cc1NC(=O)c1cnc(N)s1 [Example 8, 2-Amino-N-[4-fluoro-2-methyl-5-[[5-(trifluoromethoxy)pyridin-2-yl]carbamoyl]phenyl]-1,3-thiazole-5-carboxamide]	100 to 1000	< 100	100 to 1000	> 1000	100 to 1000	< 100	–	–	–	–	–	–
Cc1cc(F)c(C(=O)Nc2ccn(C(F)F)n2)cc1NC(=O)c1cnc(N)s1 [Example 181, 2-Amino-N-[5-[[1-(difluoromethyl)pyrazol-3-yl]carbamoyl]-4-fluoro-2-methylphenyl]-1,3-thiazole-5-carboxamide]	–	–	–	–	–	–	> 1000	< 100	> 1000	> 1000	> 1000	< 100
Cc1cc(F)c(C(=O)Nc2ccn(C(C)C)n2)cc1NC(=O)c1cnc(N)s1 [Example 158, 2-Amino-N-[4-fluoro-2-methyl-5-[(1-propan-2-ylpyrazol-3-yl)carbamoyl]phenyl]-1,3-thiazole-5-carboxamide]	–	–	–	–	–	–	> 1000	< 100	100 to 1000	> 1000	100 to 1000	< 100
CO[C@H]1C[C@@H](NC(=O)c2cc(NC(=O)c3cnc(N)s3)c(C)cc2F)C1 [Example 123, 2-Amino-N-[4-fluoro-5-[(3-methoxycyclobutyl)carbamoyl]-2-methylphenyl]-1,3-thiazole-5-carboxamide]	–	–	–	–	–	–	> 1000	< 100	> 1000	> 1000	> 1000	< 100
Cc1ncc(C(=O)Nc2cc(C(=O)Nc3ccc(OC(C)C)cn3)c(F)cc2C)s1 [Example 40, N-[4-fluoro-2-methyl-5-[(5-propan-2-yloxypyridin-2-yl)carbamoyl]phenyl]-2-methyl-1,3-thiazole-5-carboxamide]	–	–	–	–	–	–	> 1000	< 100	> 1000	> 1000	> 1000	< 100
Cc1cc(F)c(C(=O)Nc2ccc(OC3(C)CC3)cn2)cc1NC(=O)c1cnc(N)s1 [Example 147, 2-Amino-N-[4-fluoro-2-methyl-5-[[5-(1-methylcyclopropyl)oxypyridin-2-yl]carbamoyl]phenyl]-1,3-thiazole-5-carboxamide]	–	–	–	–	–	–	100 to 1000	< 100	< 100	> 1000	100 to 1000	< 100
Cc1cc(F)c(C(=O)Nc2cc3n(n2)CCC3)cc1NC(=O)c1cnc(N)s1 [Example 156, 2-Amino-N-[5-(5,6-dihydro-4H-pyrrolo[1,2-b]pyrazol-2-ylcarbamoyl)-4-fluoro-2-methylphenyl]-1,3-thiazole-5-carboxamide]	–	–	–	–	–	–	> 1000	< 100	100 to 1000	> 1000	> 1000	< 100
Cc1cc(F)c(C(=O)Nc2ccn(C3CCOCC3)n2)cc1NC(=O)c1cnc(N)s1 [Example 150, 2-Amino-N-[4-fluoro-2-methyl-5-[[1-(oxan-4-yl)pyrazol-3-yl]carbamoyl]phenyl]-1,3-thiazole-5-carboxamide]	–	–	–	–	–	–	> 1000	< 100	> 1000	> 1000	> 1000	< 100

The remaining lines, values ahead:

IC50 (CSF1R) [nM]	IC50 (c-Kit) [nM]	IC50 (PDGFRβ) [nM]	IC50 (FLT3) [nM]	IC50 (PDGFRα) [nM]	IC50 ([1]; phospho-KIT (Y703), SCF-stimulated M07e cells) [nM]	IC50 (CSF1R; HTRF KinEASE-TK) [nM]	IC50 (c-Kit; HTRF KinEASE-TK) [nM]	IC50 (PDGFRβ; HTRF KinEASE-TK) [nM]	IC50 (FLT3; HTRF KinEASE-TK) [nM]	IC50 (PDGFRα; HTRF KinEASE-TK) [nM]	IC50 ([1]; Phospho-KIT (Y703), M07e cells) [nM]	SMILES
–	–	–	–	–	–	> 1000	< 100	100 to 1000	> 1000	> 1000	< 100	CO[C@@H](C)c1ccc(NC(=O)c2cc(NC(=O)c3cnc(N)s3)c(C)cc2F)nc1 [Example 257, 2-Amino-N-[4-fluoro-5-[[5-[(1S)-1-methoxyethyl]pyridin-2-yl]carbamoyl]-2-methylphenyl]-1,3-thiazole-5-carboxamide]
–	–	–	–	–	–	> 1000	< 100	> 1000	> 1000	> 1000	< 100	CO[C@H]1C[C@H](n2ccc(NC(=O)c3cc(NC(=O)c4cnc(N)s4)c(C)cc3F)n2)C1 [Example 187, 2-Amino-N-[4-fluoro-5-[[1-(trans-3-methoxycyclobutyl)pyrazol-3-yl]carbamoyl]-2-methylphenyl]-1,3-thiazole-5-carboxamide]
–	–	–	–	–	–	> 1000	< 100	> 1000	> 1000	> 1000	< 100	CCOc1ccc(NC(=O)c2cc(NC(=O)c3cnc(N)s3)c(F)cc2F)nc1 [Example 212, 2-Amino-N-[5-[(5-ethoxypyridin-2-yl)carbamoyl]-2,4-difluorophenyl]-1,3-thiazole-5-carboxamide]
–	–	–	–	–	–	100 to 1000	< 100	100 to 1000	> 1000	> 1000	< 100	Nc1ncc(C(=O)Nc2cc(C(=O)Nc3ccc(OC(F)(F)F)cn3)c(F)cc2F)s1 [Example 210, 2-Amino-N-[2,4-difluoro-5-[[5-(trifluoromethoxy)pyridin-2-yl]carbamoyl]phenyl]-1,3-thiazole-5-carboxamide]
–	–	–	–	–	–	> 1000	< 100	100 to 1000	> 1000	> 1000	< 100	CO[C@H](C)c1ccc(NC(=O)c2cc(NC(=O)c3cnc(N)s3)c(C)cc2F)nc1 [Example 256, 2-Amino-N-[4-fluoro-5-[[5-[(1R)-1-methoxyethyl]pyridin-2-yl]carbamoyl]-2-methylphenyl]-1,3-thiazole-5-carboxamide]
–	–	–	–	–	–	> 1000	< 100	> 1000	> 1000	> 1000	100 to 1000	Cc1cc(F)c(C(=O)N[C@H]2CCOC2)cc1NC(=O)c1cnc(N)s1 [Example 194, 2-Amino-N-[4-fluoro-2-methyl-5-[[(3S)-oxolan-3-yl]carbamoyl]phenyl]-1,3-thiazole-5-carboxamide]
–	–	–	–	–	–	> 1000	< 100	> 1000	> 1000	> 1000	< 100	Cc1cc(F)c(C(=O)Nc2ccc(COCC3CC3)cn2)cc1NC(=O)c1cnc(N)s1 [Example 251, 2-Amino-N-[5-[[5-(cyclopropylmethoxymethyl)pyridin-2-yl]carbamoyl]-4-fluoro-2-methylphenyl]-1,3-thiazole-5-carboxamide]
–	–	–	–	–	–	> 1000	< 100	> 1000	> 1000	> 1000	< 100	COCCc1ccc(NC(=O)c2cc(NC(=O)c3cnc(N)s3)c(C)cc2F)nc1 [Example 245, 2-Amino-N-[4-fluoro-5-[[5-(2-methoxyethyl)pyridin-2-yl]carbamoyl]-2-methylphenyl]-1,3-thiazole-5-carboxamide]
–	–	–	–	–	–	> 1000	< 100	> 1000	> 1000	> 1000	< 100	CO[C@H]1C[C@@H](n2ccc(NC(=O)c3cc(NC(=O)c4cnc(N)s4)c(C)cc3F)n2)C1 [Example 185, 2-Amino-N-[4-fluoro-5-[[1-(cis-3-methoxycyclobutyl)pyrazol-3-yl]carbamoyl]-2-methylphenyl]-1,3-thiazole-5-carboxamide]
